Reference: patent publication US6514517B2, “Antimicrobial coatings for medical devices” (Ethicon, Inc., priority 2001, dated 2003)

System: Staphylococcus aureus ATCC33591
Assay: Kirby-Bauer type test, coated suture sections on seeded agar plates
Assay type: cell-based
Procedure: In order to further evaluate the in-vitro potential for pH-lowering coatings, a study was carried out with Staphylococcus aureus ATCC33591. A series of coatings was prepared by dissolving 2.5, 5, 10 and 20 percent (w/w) of L(−)-lactide, respectively, in ethyl acetate. A second series of coatings was prepared by dissolving 2.5, 5, 10 and 20 percent (w/w) of L(−)-lactide in combination with 9 percent (w/w) polyoxaester, respectively, in ethyl acetate.
The polyoxaester coating copolymer used was a poly(ethylene 3,6,9-trioxaundecanedioate-seg-caprolactone-co-glycolide) resin comprised of approximately 17 weight percent polyoxaester prepolymer and a 83 weight percent polymerized mixture of approximately 91 mole percent ε-caprolactone and 9 mole percent glycolide. The polyoxaester is a polycondensation product of 3,6,9-trioxaundecanedioic acid and ethylene glycol made to have hydroxyl functionalities at both ends of each chain. The final resin is made through a ring opening polymerization of the ε-caprolactone and glycolide mixture using the polyoxaester as an α,ω-dihydroxy-macroinitiator. The inherent viscosity of the coating copolymer was 0.55 dL/g as determined in hexafluoroisopropanol (HFIP) at 25° C. at a concentration of 0.1 g/dL.
A third series of coatings was prepared by dissolving 2.5, 5, 10 and 20 percent (w/w) of glycolide, respectively, in ethyl acetate. A fourth series of coatings was prepared by dissolving 2.5, 5, 10 and 20 percent (w/w) of glycolide in combination with 9 percent (w/w) polyoxaester coating copolymer, respectively, in ethyl acetate. Approximately one-inch sections of commercial size 2/0 synthetic absorbable braided [10/90 poly(lactide-co-glycolide)] suture were dipped into the solutions and were dried overnight in a laminar flow hood, thereby providing a coated suture according to the present invention. In a Kirby-Bauer type test, plates were seeded with a 24-hour culture of Staph. aureus. The coated suture sections were placed on agar plates and the plates were incubated at 30-35° C. for 24 hours. […] For sutures coated from solutions comprising 2.5 percent and 5 percent lactide, respectively, zones of inhibition extending approximately 1 mm from the coated suture were observed. […] Utilizing a 20 percent lactide coating solution, the zone of inhibition was greater than 1 mm. All other coatings yielded results approximately the same as those obtained from a 10 percent lactide coating solution.
Referring to FIG. 3, a one inch-section of suture 30 coated with a solution of 20 percent by weight lactide in ethyl acetate was placed on a seeded agar plate and incubated as above. […] Referring to FIG. 2, when a section of untreated suture 20 is placed on a seeded agar plate and incubated as above, microorganisms 22 are present immediate and adjacent to the untreated suture and no zone of inhibition is noted around the suture.

[1] = 2/0 braided 10/90 poly(lactide-co-glycolide) suture coated from 2.5 percent solution in ethyl acetate, 30-35° C., 24 hours
[2] = 2/0 braided 10/90 poly(lactide-co-glycolide) suture coated from 5 percent solution in ethyl acetate, 30-35° C., 24 hours
[3] = 2/0 braided 10/90 poly(lactide-co-glycolide) suture coated from 10 percent solution in ethyl acetate, 30-35° C., 24 hours

| Structure (SMILES) | zones of inhibition extending from the coated suture [1] | zones of inhibition extending from the coated suture [2] | zones of inhibition extending from the coated suture [3] | zone of inhibition extending from the coated suture (2/0 braided 10/90 poly(lactide-co-glycolide) suture coated from 20 percent solution in ethyl acetate, 30-35° C., 24 hours) | zone of inhibition (FIG. 3, in words) (one inch-section of suture coated with 20 percent by weight solution in ethyl acetate) |
| --- | --- | --- | --- | --- | --- |
| O=C1COC(=O)CO1 [glycolide] | less than 1 mm | less than 1 mm | approximately 1 mm |  |  |
| C[C@@H]1OC(=O)[C@H](C)OC1=O [L(−)-lactide] | approximately 1 mm | approximately 1 mm | approximately 1 mm | greater than 1 mm | Zone of inhibition 34 clearly surrounds coated suture 30 |
